One assay relates to Kuramochi cells. The assay can be described thus: IncuCyte Kuramochi Assay (cell proliferation). As to conditions: Kuramochi cells labeled with mApple-H2B, cell count, read-out: IncuCyte - Kuramochi RB-WT: IC50. The format is cell-based. As for the experimental part:
IncuCyte® assay was used to measure the effect of disclosed compounds on cell proliferation. Fluorescent microscopy images of cells were taken immediately after compound treatment and 72 hours later. Image analysis software was used to obtain cell counts as a function of compound concentration. Kuramochi cells labeled with mApple-H2B were seeded on 384-well assay-ready plates. Plates were placed in an IncuCyte® (Sartorius) and scanned at 0 and 72 hours. IncuCyte® software was used to count the number of fluorescent nuclei in each well. The fold change in cell count from 0 to 72 hours in wells treated with increasing compounds concentrations (10 pts, ½ log dilution, 20 μM top concentration) was normalized to DMSO control wells. The normalized cell counts were fit with dose response curves and a […] was calculated.

The target of another assay is T1, CDK2/Cyclin E1 (Homo sapiens, UniProt P24941).
T1 construct: purchased 14-475
Briefly: Caliper Assay (LabChip EZ Reader mobility shift assay), inhibition of CDK2/Cyclin E1 activity. The format is biochemical. As to conditions: 2.5 nM CDK2/Cyclin E1(14-475), 100 μM ATP, 30 min preincubation; read-out: Caliper Assay (CDK2/CCNE1): IC50. On the procedure:
Inhibition of CDK2/Cyclin E1 activity in the presence of compounds of the present disclosure was evaluated using a Caliper LabChip® EZ Reader mobility shift assay. In the assay, activated CDK2/Cyclin E1 catalyzes the phosphorylation of a fluorescently tagged peptide 5-FAM-QSPKKG-CONH2 (PerkinElmer, FL Peptide 18) which induces a difference in capillary electrophoresis mobility. The peptide substrate and product were measured, and the conversion ratio was used to determine the inhibition (as % activity and IC50 values) of CDK2/Cyclin E1. Reactions contained 50 mM HEPES pH 7.5, 10 mM MgCl2, 1 mM EDTA, 2 mM DTT, 0.01% Brij35, 0.5 mg/mL BSA, 0.1% DMSO, 2.5 nM CDK2/Cyclin E1(14-475), 100 μM ATP, and 1.5 μM fluorescent peptide substrate.
Dose titrations of inhibitors in 100% DMSO were combined with 3.25 nM CDK2/Cyclin E1(14-475) and 130 μM of ATP in reaction buffer. The mixtures were incubated for 30 minutes before the addition of fluorescent peptide substrate to initiate the kinase reaction. The final conditions were 2.5 nM CDK2/Cyclin E1(14-475), 100 μM ATP, and 1.5 μM fluorescent peptide. The reactions were stopped after 100 minutes with the addition of EDTA (6 mM final EDTA concentration). The stopped reactions were analyzed on a Caliper LabChip© EZ Reader II. The conversion ratios were normalized to yield % activity, plotted against compound concentration, and fit to a four-parameter equation to determine the IC50 for each compound.

The structures appear in SMILES notation. Like-named read-outs stand apart in the source and are kept apart here.

The results in this text go back to patent US20260151375A1, “CDK2 INHIBITORS AND METHODS OF USING THE SAME” (Cedilla Therapeutics, Inc., priority 2022, published 2026).

With `Cc1cc(C)n(C(C)c2nc(C3CN(C(=O)c4cnn(Cc5ccccc5)c4)CC34CN(C(=O)[C@H]3CC3(C)C)C4)no2)n1` (single isomer, unassigned) [I-2], the IC50 with Kuramochi cells (72 h) was 5 to 10 µM.
As for `CC(c1nc(C2CN(C(=O)c3cncs3)CC23CN(C(=O)[C@H]2CC2(C)C)C3)no1)n1ccc(C2CCCC2)n1` (single isomer, unassigned) [I-36 1st], the IC50 at CDK2/Cyclin E1 is 0.01 to 0.1 µM; in the assay on Kuramochi cells (72 h) it was more than 10 µM.
As for `CC(c1nc(C2CN(C(=O)c3cncs3)CC23CN(C(=O)[C@H]2CC2(C)C)C3)no1)n1ccc(C2CCCC2)n1` (single isomer, unassigned) [I-36 4th], the IC50 on CDK2/Cyclin E1 was 0.01 to 0.1 µM; in the assay on Kuramochi cells (72 hours) it was more than 10 µM.
For `CC(c1nc(C2CN(C(=O)c3cncs3)CC23CN(C(=O)[C@H]2CC2(C)C)C3)no1)n1ccc(C2CCCC2)n1` (single isomer, unassigned) [I-36 5th] the same measures were not above 0.01 µM and more than 10 µM.
In the case of `CC1(C)CC1C(=O)N1CC2(CN(C(=O)c3cncs3)CC2(F)c2nnc(C(F)(F)c3ccc(Cl)c(Cl)c3)o2)C1` (single isomer, unassigned) [I-38 1st], the IC50 at CDK2/Cyclin E1 and in the assay on Kuramochi cells (72 h) was more than 10 µM throughout.
On to `CC1(C)C[C@@H]1C(=O)N1CC2(CN(C(=O)c3cncs3)CC2(F)c2nnc(C(F)(F)c3ccc(Cl)c(Cl)c3)o2)C1` (single isomer, unassigned) [I-38 2nd], for which the IC50 was 1 to 10 µM at CDK2/Cyclin E1 and more than 10 µM in the assay with Kuramochi cells (72 h).
Turning to `CC1(C)C[C@@H]1C(=O)N1CC2(CN(C(=O)c3cncs3)CC2(F)c2nnc(C(F)(F)c3ccc(Cl)c(Cl)c3)o2)C1` (single isomer, unassigned) [I-38 3rd], the IC50 on CDK2/Cyclin E1 and in the assay with Kuramochi cells (72 hours) was more than 10 µM throughout.
Turning to `CC1(C)C[C@@H]1C(=O)N1CC2(CN(C(=O)c3cnccn3)CC2c2nnc(C(F)(F)c3ccc(Cl)c(Cl)c3)o2)C1` (single isomer, unassigned) [I-45 1st], the figures for the IC50 on CDK2/Cyclin E1 and with Kuramochi cells (72 h) were 0.1 to 1 µM and more than 10 µM, respectively.
Consider `O=C(c1onc2ccccc12)N1CC(c2nnc(C(F)(F)c3ccc(Cl)c(Cl)c3)o2)C2(C1)CN(C(=O)[C@H]1CC1(F)F)C2` (single isomer, unassigned) [I-151 1st], for which the IC50 on CDK2/Cyclin E1 and in the assay on Kuramochi cells (72 h) was more than 10 µM each time.
For `O=C(c1onc2ccccc12)N1CC(c2nnc(C(F)(F)c3ccc(Cl)c(Cl)c3)o2)C2(C1)CN(C(=O)[C@H]1CC1(F)F)C2` (single isomer, unassigned) [I-151 2nd], the IC50 on CDK2/Cyclin E1 is 1 to 10 µM; in the assay on Kuramochi cells (72 hours), more than 10 µM.
For `CC1(C)C[C@@H]1C(=O)N1CC2(CN(C(=O)c3cnn(Cc4ccccc4)c3)CC2c2noc(Cc3ccc(Cl)cc3)n2)C1` (stereo partly drawn) [I-1], the results for the IC50 on CDK2/Cyclin E1 and with Kuramochi cells (72 h) were 0.1 to 1 µM and 5 to 10 µM, respectively.
As for `CCO[C@H]1C[C@@H](c2nc(C3CN(C(=O)c4cnn(Cc5ccccc5)c4)CC34CN(C(=O)[C@H]3CC3(C)C)C4)no2)C1` (stereo partly drawn) [I-3], the IC50 on CDK2/Cyclin E1 is 1 to 10 µM; in the assay with Kuramochi cells (72 h) it was more than 10 µM.
As for `CC1(C)C[C@@H]1C(=O)N1CC2(CN(C(=O)c3cnn(Cc4ccccc4)c3)CC2c2nnc(Cc3ccc(Cl)c(Cl)c3)o2)C1` (stereo partly drawn) [I-4], the IC50 at CDK2/Cyclin E1 is 1 to 10 µM; in the assay with Kuramochi cells (72 hours), more than 10 µM.
Regarding `CC1(C)C[C@@H]1C(=O)N1CC2(CN(C(=O)c3cnn(Cc4ccccc4)c3)CC2c2nnc(Nc3ccc(Br)cc3)o2)C1` (stereo partly drawn) [I-5, (1-benzyl-1H-pyrazol-4-yl)(8-(5-((4-bromophenyl)amino)-1,3,4-oxadiazol-2-yl)-2-((S)-2,2-dimethylcyclopropane-1-carbonyl)-2,6-diazaspiro[3.4]octan-6-yl)methanone], the IC50 is 1 to 10 µM on CDK2/Cyclin E1 and more than 10 µM in the assay with Kuramochi cells (72 h).
In the same order, the values of `CC1(C)C[C@@H]1C(=O)N1CC2(CN(C(=O)c3cnn(Cc4ccccc4)c3)CC2c2nnc(Cc3ccc(Cl)c(Cl)c3)[nH]2)C1` (stereo partly drawn) [I-6, (1-benzyl-1H-pyrazol-4-yl)(8-(5-(3,4-dichlorobenzyl)-4H-1,2,4-triazol-3-yl)-2-((S)-2,2-dimethylcyclopropane-1-carbonyl)-2,6-diazaspiro[3.4]octan-6-yl)methanone] are 1 to 10 µM and 5 to 10 µM.
Regarding `CC1(C)C[C@@H]1C(=O)N1CC2(CN(C(=O)c3cnn(Cc4ccccc4)c3)CC2c2cc(NC(=O)C3CC3)on2)C1` (stereo partly drawn) [I-7, N-(3-(6-(1-benzyl-1H-pyrazole-4-carbonyl)-2-((S)-2,2-dimethylcyclopropane-1-carbonyl)-2,6-diazaspiro[3.4]octan-8-yl)isoxazol-5-yl)cyclopropanecarboxamide], the IC50 on CDK2/Cyclin E1 lay in the range of 0.1 to 1 µM; with Kuramochi cells (72 h), 5 to 10 µM.
For `CC1(C)C[C@@H]1C(=O)N1CC2(CN(C(=O)c3cnn(Cc4ccccc4)c3)CC2c2ncc(Cc3ccc(Cl)cc3)o2)C1` (stereo partly drawn) [I-8, (1-benzyl-1H-pyrazol-4-yl)(8-(5-(4-chlorobenzyl)oxazol-2-yl)-2-((S)-2,2-dimethylcyclopropane-1-carbonyl)-2,6-diazaspiro[3.4]octan-6-yl)methanone] the same measures were 0.1 to 1 µM and 5 to 10 µM.
With `Cc1cc(C)n(C(C)c2nc(C3CN(C(=O)c4cncs4)CC34CN(C(=O)[C@H]3CC3(C)C)C4)no2)n1` (stereo partly drawn) [I-9, (8-(5-(1-(3,5-dimethyl-1H-pyrazol-1-yl)ethyl)-1,2,4-oxadiazol-3-yl)-2-((S)-2,2-dimethylcyclopropane-1-carbonyl)-2,6-diazaspiro[3.4]octan-6-yl)(thiazol-5-yl)methanone], the IC50 on CDK2/Cyclin E1 is 1 to 10 µM; in the assay with Kuramochi cells (72 h), more than 10 µM.
In the same order, the values of `Cc1ccc(CNC(=O)c2coc(C3CN(C(=O)c4cnn(Cc5ccccc5)c4)CC34CN(C(=O)[C@H]3CC3(C)C)C4)n2)nn1` (stereo partly drawn) [I-10] are more than 10 µM and more than 10 µM.
For `C[C@@H](NC(=O)c1coc(C2CN(C(=O)c3cnn(Cc4ccccc4)c3)CC23CN(C(=O)[C@H]2CC2(C)C)C3)n1)c1ccccc1` (stereo partly drawn) [I-11] the same measures were 1 to 10 µM and not above 0.5 µM.
As to `CC1(C)C[C@@H]1C(=O)N1CC2(CN(C(=O)c3cnn(Cc4ccccc4)c3)CC2c2nnc(CC3CCOCC3)o2)C1` (stereo partly drawn) [I-12], the IC50 was 1 to 10 µM on CDK2/Cyclin E1 and more than 10 µM with Kuramochi cells (72 h).
For `Cc1cc(C)n(Cc2nnc(C3CN(C(=O)c4cnn(Cc5ccccc5)c4)CC34CN(C(=O)[C@H]3CC3(C)C)C4)o2)n1` (stereo partly drawn) [I-13] the same measures were 1 to 10 µM and more than 10 µM.
In the same order, the values of `CC1(C)C[C@@H]1C(=O)N1CC2(CN(C(=O)c3cnn(Cc4ccccc4)c3)CC2c2nnc(Cc3cncnc3)o2)C1` (stereo partly drawn) [I-14, (1-benzyl-1H-pyrazol-4-yl)(2-((S)-2,2-dimethylcyclopropane-1-carbonyl)-8-(5-(pyrimidin-5-ylmethyl)-1,3,4-oxadiazol-2-yl)-2,6-diazaspiro[3.4]octan-6-yl)methanone] are 1 to 10 µM and more than 10 µM.
For `CC1(C)C[C@@H]1C(=O)N1CC2(CN(C(=O)c3cnn(Cc4ccccc4)c3)C[C@@H]2c2nnc(Cc3ccc(Cl)c(Cl)c3)o2)C1` [I-16, (1-benzyl-1H-pyrazol-4-yl)((R)-8-(5-(3,4-dichlorobenzyl)-1,3,4-oxadiazol-2-yl)-2-((S)-2,2-dimethylcyclopropane-1-carbonyl)-2,6-diazaspiro[3.4]octan-6-yl)methanone] the same measures were 1 to 10 µM and more than 10 µM.
In the case of `CC1(C)C[C@@H]1C(=O)N1CC2(CN(C(=O)c3cnn(Cc4ccccc4)c3)CC2c2nnc(CCC3CCC(F)(F)CC3)o2)C1` (stereo partly drawn) [I-17], the IC50 at CDK2/Cyclin E1 is 0.1 to 1 µM; in the assay on Kuramochi cells (72 h) it was more than 10 µM.
For `Cc1cc(C)n(C(C)c2nnc(C3CN(C(=O)c4cnn(Cc5ccccc5)c4)CC34CN(C(=O)[C@H]3CC3(C)C)C4)o2)n1` (stereo partly drawn) [I-18] the same measures were 0.1 to 1 µM and more than 10 µM.
For `CC1(C)C[C@@H]1C(=O)N1CC2(CN(C(=O)c3cnn(Cc4ccccc4)c3)CC2c2nnc(CC3CCC(F)(F)CC3)o2)C1` (stereo partly drawn) [I-20] the same measures were 1 to 10 µM and more than 10 µM.
In the same order, the values of `Cc1cc(C)n([C@@H](C)c2nc(C3CN(C(=O)c4cnn(Cc5ccccc5)c4)CC34CN(C(=O)[C@H]3CC3(C)C)C4)no2)n1` (stereo partly drawn) [I-21, (1-benzyl-1H-pyrazol-4-yl)(8-(5-(1-(3,5-dimethyl-1H-pyrazol-1-yl)ethyl)-1,2,4-oxadiazol-3-yl)-2-((S)-2,2-dimethylcyclopropane-1-carbonyl)-2,6-diazaspiro[3.4]octan-6-yl)methanone] are 0.1 to 1 µM and more than 10 µM.
With `Cc1ccc(Cc2nnc(C3CN(C(=O)c4cnn(Cc5ccccc5)c4)CC34CN(C(=O)[C@H]3CC3(C)C)C4)o2)nn1` (stereo partly drawn) [I-22], the IC50 is 1 to 10 µM at CDK2/Cyclin E1 and more than 10 µM with Kuramochi cells (72 h).
